Test results from patent publication US8212051B2, “Process for the preparation of pure irbesartan” (Lek Pharmaceuticals, D.D., priority 2006, dated 2012).
Counter-ions that a name gives are not always drawn.

Legend:
[1] = Stability against degradation when dissolved in hot mixture of solvents and extracted; format: physicochemical; settings: salt dissolved in hot mixture of solvents and extracted; compared with purification via HCl salt
[2] = Solubility in boiling acetone (amount of acetone needed to dissolve 1 g); format: physicochemical; settings: per 1 g substance

stability against degradation [1]	amount of acetone needed to dissolve 1 g [2]	SMILES
more stable against degradation	6 mL	CCCCC1=NC2(CCCC2)C(=O)N1Cc1ccc(-c2ccccc2-c2nnn[nH]2)cc1 [irbesartan HBr, hydrobromide acid addition salt of 2-n-butyl-3-[[2′-(tetrazol-5-yl)biphenyl-4-yl]methyl]-1.3-diazaspiro[4.4]non-1-en-4-one]
–	100 mL	CCCCC1=NC2(CCCC2)C(=O)N1Cc1ccc(-c2ccccc2-c2nnn[nH]2)cc1 [irbesartan, 2-n-butyl-3-[[2′-(tetrazol-5-yl)biphenyl-4-yl]methyl]-1.3-diazaspiro[4.4]non-1-en-4-one]
–	15 mL	CCCCC1=NC2(CCCC2)C(=O)N1Cc1ccc(-c2ccccc2-c2nnn[nH]2)cc1 [irbesartan HCl]
